Measurements taken from US7691985B2, “Skeletal-targeted radiation to treat bone-associated pathologies” (priority 1999, dated 2010).

Experiments:
[1] = tested on: Multiple myeloma patients; assay: ^166Ho-DOTMP plus melphalan with or without TBI and stem cell transplant, Phase I/II (Examples 7, 11, 13); assay type: in vivo, human
Protocol: Multiple myeloma patients (≦65 yrs. of age) that have responded to initial chemotherapy or have primary refractory disease or chemotherapy responsive relapse, but who are not in refractory relapse are treated. Patients are well hydrated with fluids during the day prior to the diagnostic dose. An initial diagnostic dose of 30 mCi of ^166Ho-DOTMP is administered to confirm the selective localization to the skeleton, establish the in-vivo pharmacokinetics and provide radiation dosimetry estimates for the red marrow. Assuming >15% of the ^166Ho-DOTMP accumulates in bone following the injection, the amount of ^166Ho-DOTMP required for therapy is calculated based on delivering a specified radiation absorbed dose to the marrow. Patients receive the therapeutic dose by intravenous injection over 5-10 minutes, given over 1-3 days >48 hrs after the dosometry (test) dose.
The time line for conducting the investigation is as follows: Test dose ^166Ho-DOTMP (30 mCi); ^166Ho scan image (0, 4-6, 20-24 hr.); Blood samples for dosimetry (10, 30 min, 1, 2, 6, 20-24 hr.); Urine samples (0-6, 6-12, 12-24, 24-48 hr.); and External whole body probe (0, 2, 6, 24 and 48 hr.).
Melphalan is administered 48 hr prior to the predicted PBSC infusion based upon dosimetry assessment from the test dose. PBSC infusion is administered when bone marrow dose from ^166Ho is ≦1 cGy/hr. Patients were treated at 20, 30, 40 and prospectively 50 Gy, and with 140 mg/m^2 and 200 mg/m^2 melphalan.
The MTD was defined as the level that is associated with a true toxicity rate of 20%, where toxicity for these purposes was taken to be grade 3 or greater extramedullary drug related toxicity.
All toxicities encountered during the study will be evaluated according to Bearman criteria (Bearman et al., J Clin Oncol, 6,1562, (1988)). Graft failure is considered a grade 3 toxicity. Graft failure is defined as failure to recover granulocytes to 0.5×10^9/l or platelets 20×10^9/l within 28 days of transplant or a fall to less than these levels for 3 or more consecutive days after day 28 without other apparent cause. Hematopoietic recovery (engraftment) is defined as having a sustained granulocyte count of 0.5×10^9/l for two consecutive counts post transplant and a platelet count 20×10^9/l for seven consecutive counts post transplant, without transfusion support. The first of two counts for the granulocyte count and the first of seven counts for the platelet count are considered the day of engraftment.
Patients undergo blood stem cell infusion at the time when ongoing radiation to the marrow falls to <1 rad/hr, and at least 24 hours after melphalan infusion. The total volume of stored cells is infused into a free flowing IV line primed with normal saline. Patients are premedicated with acetaminophen 650 mg PO and diphenhydramine 50 mg PO or IV. All patients receive conventional supportive care for autologous/syngeneic blood and marrow transplantation, (such as allopurinol, menstrual suppression, prophylactic antibiotics, empiric antibiotics, IV Ig, transfusions of blood products, hyperalimentation, and the like).
Patients, afflicted with multiple myeloma, were treated according to the method of the present invention. The dosage range of radiation from the complex was 460 mCi to 4.5 Ci.
Fifty-three patients received intravenous hydration only, while 30 patients received both IV hydration and continuous bladder irrigation.
In order to achieve a complete response using protocol criteria, a patient must have a complete absence of any myeloma protein in the blood/urine and marrow post treatment. The patient must have normal bone marrow with complete resolution of plasmocytomas and no increase in bone lesions. To meet international standards, this must be maintained for 6 weeks. While response rates to a conventional high dose therapy vary widely, in general for previously treated patients, there is a range of 5-25% CR rate. […]

[2] = Pharmacokinetics and patient specific dosimetry of ^166Ho-DOTMP in patients with breast cancer metastatic to bone (Example 6); assay type: in vivo, human
Protocol: Eight patients with breast cancer metastatic only to bone initially received a 30 mCi dose of ^166Ho-DOTMP for diagnostic purposes. Pharmacokinetics were assessed via whole body counting, gamma camera imaging, and urine and blood assays for the first 48 hours following injection. Patients were followed with autologous stem cell transplantation for rescue from hematologic toxicity.
Therapy doses were calculated based upon prescribed dose to the red bone marrow using the Medical Internal Radiation Dose (MIRD) technique and percentage localization in the skeleton. Appropriate S-values were provided by Oak Ridge National Laboratory. The desired target dose was 22 Gy to the red marrow calculated by the above technique for each individual. The average red marrow dose was calculated to be 1.97±0.92 cGy/mCi (range: 0.98 cGy/mCi to 3.19 cGy/mCi). Three patients proceeded to therapy, two were disqualified due to low uptake in the skeleton (≦30%; revised qualification: 15%), and three were disqualified for other reasons unrelated to the ^166Ho-DOTMP treatment.

[3] = 140 mg/m^2 melphalan w/ TBI, 20 Gy to marrow
[4] = 140 mg/m^2 melphalan w/ TBI, 30 Gy to marrow
[5] = 140 mg/m^2 melphalan w/ TBI, 40 Gy to marrow
[6] = 140 mg/m^2 melphalan w/o TBI, 20 Gy to marrow
[7] = 140 mg/m^2 melphalan w/o TBI, 30 Gy to marrow
[8] = 140 mg/m^2 melphalan w/o TBI, 40 Gy to marrow
[9] = 200 mg/m^2 melphalan w/o TBI, 20 Gy to marrow
[10] = 200 mg/m^2 melphalan w/o TBI, 30 Gy to marrow
[11] = 200 mg/m^2 melphalan w/o TBI, 40 Gy to marrow
[12] = 40 patients who received 200 mg/m^2 melphalan and were not in CR at treatment
[13] = nine patients, 750+/−10% mCi/m^2
[14] = nine patients, dose 750 mCi/m^2 (±10%)
[15] = patients who received more than 1500 mCi
[16] = patients who received ≦1500 mCi
[17] = ≦30 Gy marrow dose, 35 evaluable patients

SMILES: O=P([O-])(O)CN1CCN(CP(=O)(O)O)CCN(CP(=O)([O-])O)CCN(CP(=O)(O)O)CC1.[166Ho] [^166Ho-DOTMP]
- Days to ANC > 500 [1, 3]: 9 days
- Days to Platelets > 20,000 [1, 3]: 12 days
- Number of Patients w/ Grade 3 Toxicity [1, 3]: 0/8
- Days to ANC > 500 [1, 4]: 11 days
- Days to Platelets > 20,000 [1, 4]: 12 days
- Number of Patients w/ Grade 3 Toxicity [1, 4]: 1/8
- Days to ANC > 500 [1, 5]: 9 days
- Days to Platelets > 20,000 [1, 5]: 13 days
- Number of Patients w/ Grade 3 Toxicity [1, 5]: 0/20
- Complete Response ([1]; 140 mg/m^2 melphalan w/ TBI, all marrow doses): 7/17
- Days to ANC > 500 [1, 6]: 10 days
- Days to Platelets > 20,000 [1, 6]: 10 days
- Number of Patients w/ Grade 3 Toxicity [1, 6]: 0/5
- Days to ANC > 500 [1, 7]: 16 days
- Days to Platelets > 20,000 [1, 7]: 10 days
- Number of Patients w/ Grade 3 Toxicity [1, 7]: 0/4
- Days to ANC > 500 [1, 8]: 12 days
- Days to Platelets > 20,000 [1, 8]: 10 days
- Number of Patients w/ Grade 3 Toxicity [1, 8]: 0/7
- Complete Response ([1]; 140 mg/m^2 melphalan w/o TBI, all marrow doses): 3/14
- patients alive ([1]; 200 mg/m^2 melphalan patients, mean follow-up time 39.4 months): Sixty-one
- Days to ANC > 500 [1, 9]: 10 days
- Days to Platelets > 20,000 [1, 9]: 11 days
- Number of Patients w/ Grade 3 Toxicity [1, 9]: 0/4
- Days to ANC > 500 [1, 10]: 12 days
- Days to Platelets > 20,000 [1, 10]: 10 days
- Number of Patients w/ Grade 3 Toxicity [1, 10]: 0/7
- Days to ANC > 500 [1, 11]: 10.5 days
- Days to Platelets > 20,000 [1, 11]: 10 days
- Number of Patients w/ Grade 3 Toxicity [1, 11]: 0/14
- Complete Response ([1]; 200 mg/m^2 melphalan w/o TBI, all marrow doses): 8/9
- complete remission [1, 12]: 39%
- partial response [1, 12]: 32%
- patients who developed grade 3-4 renal toxicity ([1]; 83 patients): Twenty-five
- symptoms of long-term kidney dysfunction ([1]; 83 patients, 5-12 months post-therapy): 40%
- patient deaths ([1]; Phase I/II studies, to date): 21
- complete response rate ([1]; across all ^166Ho-DOTMP/melphalan±TBI doses, 77 patients with response data): 35%
- patients with a partial response ([1]; across all doses, 77 patients with response data): Twenty-four
- Grade 1-3 hemorrhagic cystitis (HC) observed ([1]; all patients): 24 patients
- patients who developed TTP/HUS ([1]; all treated at 40 Gy or higher to the marrow): Seven
- cases of Grade 3-4 renal toxicities [1, 13]: no cases of Grade 3-4 renal toxicities
- cases of TTP/HUS [1, 13]: no cases of TTP/HUS
- 2-year survival [1, 14]: 100%
- CR rate [1, 14]: 44.4%
- Grade 1-3 hemorrhagic cystitis (HC), patients treated without continuous bladder irrigation (CBI) ([1]; of the 24 patients with HC): 22 patients
- cases of TTP and Grade 3 or high renal toxicity ([1]; patients administered less than 1500 mCi): no reported cases
- cases of TTP/HUS ([1]; patients treated at doses, 675 mCi/m^2): no cases of TTP/HUS occurred
- incidence of sustained renal dysfunction ([1]; patients who received less than 1500 mCi): 23%
- CR rate [1, 15]: 36%
- Two-year survival [1, 15]: 67%
- CR rate [1, 16]: 32%
- Two-year survival [1, 16]: 77%
- patients with renal dysfunction not related to TTP/HUS or progressive myeloma ([1]; serum creatinine >2 mg/dL twice or >3 mg/dL once): nine
- tolerability ([1]; with melphalan at 200 mg/m^2): well tolerated
- survival of 12 months ([1]; ≦30 Gy marrow dose): 100%
- Complete Response [1, 17]: 30%
- partial response [1, 17]: 32%
- progressive disease [1, 17]: None
- stable disease [1, 17]: 32%
- effective skeletal half-life ([2]; 30 mCi diagnostic dose): 19.9 ± 2.5 h
- average percentage uptake in the skeleton ([2]; 30 mCi diagnostic dose, eight patients): 28±12%
- material present in the urine ([2]; 6 hours post injection): Approximately 50%
- injected dose remaining in whole blood ([2]; 24 hours post injection): a small percentage
- whole blood clearance early T1/2 ([2]; biphasic clearance): 3 ± 2.4 min
- whole blood clearance late T1/2 ([2]; biphasic clearance): 11 ± 4 h
- average red marrow dose ([2]; calculated by MIRD technique): 1.97±0.92 cGy/mCi
- toxicity ([2]; therapy, target 22 Gy to red marrow, three patients): Other than severe hematological suppression, no toxicity was noted
